Laboratory results as given in ChEMBL document CHEMBL5107992, “Development of potent non-acylhydrazone inhibitors of intestinal sodium-dependent phosphate transport protein 2b (NaPi2b)” (Bioorg Med Chem, 2022).
≈ marks a conversion by molar mass, not a printed value.

Columns and labels:
[1] = molecular target: T1, Sodium-dependent phosphate transport protein 2B (Homo sapiens, UniProt O95436); assay: Inhibition of human NaPi2b transfected in human KJMGER8 cells assessed as reduction in H2[33P]O4 uptake incubated for 60 mins by TopCount scintillation counting method; assay type: cell-based
T1 sequence (O95436 whole entry): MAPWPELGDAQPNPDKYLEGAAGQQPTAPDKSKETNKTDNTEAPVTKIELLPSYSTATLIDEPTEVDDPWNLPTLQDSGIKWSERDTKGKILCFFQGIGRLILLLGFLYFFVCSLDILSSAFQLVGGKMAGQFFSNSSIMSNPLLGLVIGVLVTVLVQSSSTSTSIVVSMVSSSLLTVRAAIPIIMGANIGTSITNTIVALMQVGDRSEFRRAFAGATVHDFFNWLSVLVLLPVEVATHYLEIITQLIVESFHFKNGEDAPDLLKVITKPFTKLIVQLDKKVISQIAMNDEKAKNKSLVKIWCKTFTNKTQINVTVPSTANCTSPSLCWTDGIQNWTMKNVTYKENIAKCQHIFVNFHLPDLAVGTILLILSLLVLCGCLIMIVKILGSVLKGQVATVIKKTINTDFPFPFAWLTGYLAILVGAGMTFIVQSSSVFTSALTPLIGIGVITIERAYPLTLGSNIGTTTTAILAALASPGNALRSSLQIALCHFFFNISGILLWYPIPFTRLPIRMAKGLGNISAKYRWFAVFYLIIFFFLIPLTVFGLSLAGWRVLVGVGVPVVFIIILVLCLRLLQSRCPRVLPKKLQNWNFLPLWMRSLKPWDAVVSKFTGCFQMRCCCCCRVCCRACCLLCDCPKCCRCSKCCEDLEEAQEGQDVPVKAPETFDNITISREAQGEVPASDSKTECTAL

[2] = Aqueous solubility of compound in PBS buffer at pH 7.4; assay type: physicochemical
[3] = Membrane permeability of compound; assay type: ADME; details: not told; read-out: permeability
[4] = Intestinal availability in rat at 3 mg/kg, po measured after 120 mins by LC/MS-MS analysis; assay type: ADME, organism-based; details: in vivo, 2 h
[5] = Aqueous solubility of compound in PBS buffer at pH 6; assay type: physicochemical
[6] = Intestinal availability in Sprague-Dawley rat; assay type: ADME

| Compound | IC50 [1] [µM] | solubility [2] [µM] | also measured |
| --- | --- | --- | --- |
| COc1ccc(NC(=O)c2c(NC(=O)c3cccc(COCCOCCOCCOCCOCCOCCO)c3)sc3c2CCC(C)(C)C3)cc1 | 1.14 | 2.3 (≈ 1.68 µg/mL) | – |
| CC1(C)CCc2c(sc(NC(=O)c3cccc(COCCOCCOCCOCCOCCOCCO)c3)c2C(=O)Nc2ccccc2)C1 | 1.4 | 81 (≈ 56.6 µg/mL) | – |
| COC(=O)c1ccc(CCc2ccc(NC(=O)c3c(NC(=O)c4cccc(OCCOCCOCCOCCOCCOCCOCC(=O)O)c4)sc4c3CCC(C)(C)C4)cc2C)cc1 | 0.071 | 116 (≈ 107 µg/mL) | – |
| COC(=O)c1ccc(CCc2ccc(NC(=O)c3c(NC(=O)c4cccc(OCCOCCOCCOCCOCCOCCO)c4)sc4c3CCC(C)(C)C4)cc2)cc1 | < 0.1 | 1.6 (≈ 1.36 µg/mL) | – |
| COC(=O)c1ccc(CCc2ccc(NC(=O)c3c(NC(=O)c4cccc(COCCOCCOCCOCCOCCOCCO)c4)sc4c3CCC(C)(C)C4)cc2C)cc1 | < 0.1 | 0.72 (≈ 0.63 µg/mL) | – |
| Cc1nnc(-c2ccc(CCc3ccc(NC(=O)c4c(NC(=O)c5cccc(CN(C)CCOCCOCCOCCC(=O)O)c5)sc5c4CCC(C)(C)C5)cc3)cc2)o1 | 0.014 | 96 (≈ 80.5 µg/mL) | Papp [3]: < 0.09 ×10⁻⁶ cm/s; FaFg [4]: 5.9%; solubility [5]: 52 µM (≈ 43.6 µg/mL) |
| Cc1nnc(-c2ccc(CCc3ccc(NC(=O)c4c(NC(=O)c5cccc(COCCOCCOCCOCC(=O)O)c5)sc5c4CCC(C)(C)C5)cc3)cc2)o1 | 0.061 | 156 (≈ 127 µg/mL) | – |
| CC1(C)CCc2c(sc(NC(=O)c3cccc(COCCOCCOCCOCCOCCOCCO)c3)c2C(=O)Nc2ccc(Cc3ccccc3)cc2)C1 | < 0.1 | 0.48 (≈ 0.379 µg/mL) | – |
| CC1(C)CCc2c(sc3nc(-c4cccc(COCCOCCOCCOCCOCCOCCO)c4)oc(=O)c23)C1 | 2.88 | 36 (≈ 21.8 µg/mL) | – |
| Cc1nnc(-c2ccc(CCc3ccc(NC(=O)c4c(NC(=O)c5cccc(CSCCOCCOCCOCCOCCOCCOCCOCCOCCC(=O)O)c5)sc5c4CCC(C)(C)C5)cc3)cc2)o1 | 0.024 | 91 (≈ 96.6 µg/mL) | – |
| Cc1nnc(-c2ccc(CCc3ccc(NC(=O)c4c(NC(=O)c5cccc(COCCOCCOCCOCCOCCOCCOCC(=O)O)c5)sc5c4CCC(C)(C)C5)cc3)cc2)o1 | 0.103 | 62 (≈ 58.5 µg/mL) | – |
| CC1(C)CCc2c(sc(NC(=O)c3cccc(OCCOCCOCCOCCOCCOCCO)c3)c2C(=O)Nc2ccc(CCc3ccc(C(=O)O)cc3)cc2)C1 | < 0.1 | 115 (≈ 95.8 µg/mL) | – |
| CCC(CC)N(CCN(C)C(=O)CCC(=O)NCCOCCOCCOCCO)Cc1cccc(C(=O)Nc2sc3c(c2C(=O)c2cnn(-c4ccc(Cl)c(C(F)(F)F)c4)c2)CCC(C)(C)C3)c1 | – | – | FaFg [6]: 0.2% |
| Cc1cc(NC(=O)c2c(NC(=O)c3cccc(OCCOCCOCCOCCOCCOCCOCC(=O)O)c3)sc3c2CCC(C)(C)C3)ccc1CCc1ccc(-c2nccs2)cc1 | 0.288 | 87 (≈ 82.1 µg/mL) | – |
| Cc1cc(NC(=O)c2c(NC(=O)c3cccc(OCCOCCOCCOCCOCCOCCOCC(=O)O)c3)sc3c2CCC(C)(C)C3)ccc1CCc1ccc(-c2ncco2)cc1 | 0.043 | 79 (≈ 73.3 µg/mL) | – |
| CCc1ccc(NC(=O)c2c(NC(=O)c3cccc(COCCOCCOCCOCCOCCOCCO)c3)sc3c2CCC(C)(C)C3)cc1 | < 0.1 | 0.39 (≈ 0.284 µg/mL) | – |
| COCCN(CCOCCOCCOCCOCCOCCOCc1cccc(C(=O)Nc2sc3c(c2C(=O)N/N=C/c2ccc(Cl)c(C(F)(F)F)c2)CCC(C)(C)C3)c1)CC(=O)O | – | – | FaFg [6]: 0.1% |
